Values of other authors, collected in patent US20240315993A1, “ANTIPARASITIC COMPOUNDS” (Intervet Inc., priority 2021, published 2024).

Legend:
[1] = tested on: Cabbage Looper (Trichoplusia ni); conditions: 128-well diet tray, average of eight wells, cited from earlier work; for Test B: Bioassay on CL, percent mortality rating: Cabbage Looper second instar larvae, 50 μg/cm^2, five to seven days
[2] = tested on: Yellow Fever Mosquito (Aedes aegypti); conditions: 96-well plate, cited from earlier work; for Test C: Bioassay on Yellow Fever Mosquito, mortality rating: Aedes aegypti larvae about 1 day old, scored after 3 days
[3] = tested on: Beet Armyworm (Spodoptera exigua); conditions: 128-well diet tray, average of eight wells, cited from earlier work; for Test A: Bioassay on BAW, percent mortality rating: Beet Armyworm second instar larvae, 50 μg/cm^2, five to seven days
[4] = 50 μg/cm^2 on artificial diet, second instar larvae, 5-7 days

## Cc1cc(N)ccc1NC(=O)c1cc(NC(=O)C2C(c3cc(Cl)c(Cl)c(Cl)c3)C2(Cl)Cl)ccc1Cl (stereo not drawn) [c84]
[1]
  Test B: Bioassay on CL, percent mortality rating: A (50-100)
[2]
  Test C: Bioassay on Yellow Fever Mosquito, mortality rating: A (80-100)
[3]
  Test A: Bioassay on BAW, percent mortality rating: A (50-100)

## O=C(Nc1ccc(-n2cccn2)cc1)c1cc(NC(=O)C2C(c3cc(Cl)cc(Cl)c3)C2(Cl)Cl)ccc1Cl (stereo not drawn) [c18]
[1]
  Test B: Bioassay on CL, percent mortality rating: A (50-100)
[2]
  Test C: Bioassay on Yellow Fever Mosquito, mortality rating: A (80-100)
[3]
  Test A: Bioassay on BAW, percent mortality rating: A (50-100)

## CCOC(=O)c1cc2cc(NC(=O)c3cc(NC(=O)C4C(c5cc(Cl)cc(Cl)c5)C4(Cl)Cl)ccc3Cl)ccc2[nH]1 (stereo not drawn) [c67]
[1]
  Test B: Bioassay on CL, percent mortality rating: A (50-100)
[2]
  Test C: Bioassay on Yellow Fever Mosquito, mortality rating: A (80-100)
[3]
  Test A: Bioassay on BAW, percent mortality rating: A (50-100)

## O=C(Nc1cncc(NO)c1)c1cc(NC(=O)C2C(c3ccc(Cl)c(Cl)c3)C2(Cl)Cl)ccc1Cl (stereo not drawn) [c110]
[1]
  Test B: Bioassay on CL, percent mortality rating: A (50-100)
[2]
  Test C: Bioassay on Yellow Fever Mosquito, mortality rating: A (80-100)
[3]
  Test A: Bioassay on BAW, percent mortality rating: A (50-100)

## O=C(Nc1cncc(NO)c1)c1cc(NC(=O)C2C(c3cc(Cl)cc(Cl)c3)C2(Cl)Cl)ccc1Cl (stereo not drawn) [c108]
[1]
  Test B: Bioassay on CL, percent mortality rating: A (50-100)
[2]
  Test C: Bioassay on Yellow Fever Mosquito, mortality rating: A (80-100)
[3]
  Test A: Bioassay on BAW, percent mortality rating: A (50-100)

## COc1c(Cl)cc(C2C(C(=O)Nc3ccc(Cl)c(C(=O)Nc4ccc(NC(C)=O)cc4)c3)C2(Cl)Cl)cc1Cl (stereo not drawn) [c20]
[1]
  Test B: Bioassay on CL, percent mortality rating: A (50-100)
[2]
  Test C: Bioassay on Yellow Fever Mosquito, mortality rating: D (No activity noticed in this bioassay)
[3]
  Test A: Bioassay on BAW, percent mortality rating: A (50-100)

## COCC1(C(=O)Nc2ccc(NC(=O)c3cc(NC(=O)[C@H]4[C@H](c5cc(Cl)cc(Cl)c5)C4(Cl)Cl)ccc3Cl)cc2)CC1 [c6]
[1]
  Test B: Bioassay on CL, percent mortality rating: A (50-100)
[2]
  Test C: Bioassay on Yellow Fever Mosquito, mortality rating: A (80-100)
[3]
  Test A: Bioassay on BAW, percent mortality rating: A (50-100)

## Cc1cc(N(C)C(=O)OC(C)(C)C)ccc1NC(=O)c1cc(NC(=O)C2C(c3ccc(F)c(Cl)c3)C2(Cl)Cl)ccc1Cl (stereo not drawn) [c42]
[1]
  Test B: Bioassay on CL, percent mortality rating: D (No activity noticed in this bioassay)
[2]
  Test C: Bioassay on Yellow Fever Mosquito, mortality rating: D (No activity noticed in this bioassay)
[3]
  Test A: Bioassay on BAW, percent mortality rating: A (50-100)

## N#Cc1cc(N)ccc1NC(=O)c1cc(NC(=O)C2C(c3cc(Cl)cc(Cl)c3)C2(Cl)Cl)ccc1Cl (stereo not drawn) [c56]
[1]
  Test B: Bioassay on CL, percent mortality rating: A (50-100)
[2]
  Test C: Bioassay on Yellow Fever Mosquito, mortality rating: A (80-100)
[3]
  Test A: Bioassay on BAW, percent mortality rating: A (50-100)

## O=C(Nc1ccc(-n2cncn2)cc1)c1cc(NC(=O)[C@H]2[C@H](c3cc(Cl)cc(Cl)c3)C2(Cl)Cl)ccc1Cl [c2]
[1]
  Test B: Bioassay on CL, percent mortality rating: A (50-100)
[2]
  Test C: Bioassay on Yellow Fever Mosquito, mortality rating: A (80-100)
[3]
  Test A: Bioassay on BAW, percent mortality rating: A (50-100)

## Cn1ncc2cc(NC(=O)c3cc(NC(=O)C4C(c5cc(Cl)cc(Cl)c5)C4(Cl)Cl)ccc3Cl)cnc21 (stereo not drawn) [c63]
[1]
  Test B: Bioassay on CL, percent mortality rating: A (50-100)
[2]
  Test C: Bioassay on Yellow Fever Mosquito, mortality rating: A (80-100)
[3]
  Test A: Bioassay on BAW, percent mortality rating: A (50-100)

## Cc1c(NC(=O)c2cc(NC(=O)C3C(c4ccc(F)c(C(F)(F)F)c4)C3(Cl)Cl)ccc2Cl)ccc(NC(=O)C(F)(F)F)c1C (stereo not drawn) [c124]
[1]; [4]
  Test B: percent mortality of Cabbage Looper (CL) larvae, rating: A (50-100)
[2]; about 1 day-old larvae, graded after 3 days at room temperature
  Test C: mortality of Yellow Fever Mosquito larvae, rating: A (80-100)
[3]; [4]
  Test A: percent mortality of Beet Armyworm (BAW) larvae, rating: A (50-100)

## Cc1cc(N)ccc1NC(=O)c1cc(NC(=O)C2C(c3ccc(F)c(Cl)c3)C2(Cl)Cl)ccc1Cl (stereo not drawn) [c89]
[1]
  Test B: Bioassay on CL, percent mortality rating: A (50-100)
[2]
  Test C: Bioassay on Yellow Fever Mosquito, mortality rating: A (80-100)
[3]
  Test A: Bioassay on BAW, percent mortality rating: A (50-100)

## O=C(Nc1ccc2ncoc2c1)c1cc(NC(=O)C2C(c3cc(Cl)cc(Cl)c3)C2(Cl)Cl)ccc1Cl (stereo not drawn) [c27]
[1]
  Test B: Bioassay on CL, percent mortality rating: A (50-100)
[2]
  Test C: Bioassay on Yellow Fever Mosquito, mortality rating: A (80-100)
[3]
  Test A: Bioassay on BAW, percent mortality rating: A (50-100)

## Cc1cc2cc(NC(=O)c3cc(NC(=O)C4C(c5cc(Cl)cc(Cl)c5)C4(Cl)Cl)ccc3Cl)ccc2[nH]1 (stereo not drawn) [c32]
[1]
  Test B: Bioassay on CL, percent mortality rating: A (50-100)
[2]
  Test C: Bioassay on Yellow Fever Mosquito, mortality rating: A (80-100)
[3]
  Test A: Bioassay on BAW, percent mortality rating: A (50-100)

## O=C(Nc1cncc([N+](=O)[O-])c1)c1cc(NC(=O)C2C(c3cc(Cl)cc(Cl)c3)C2(Cl)Cl)ccc1Cl (stereo not drawn) [c106]
[1]
  Test B: Bioassay on CL, percent mortality rating: A (50-100)
[2]
  Test C: Bioassay on Yellow Fever Mosquito, mortality rating: A (80-100)
[3]
  Test A: Bioassay on BAW, percent mortality rating: A (50-100)

## O=C(Nc1ccccc1)c1cc(NC(=O)C2C(c3cc(Cl)cc(Cl)c3)C2(Cl)Cl)cc(Cl)c1Cl (stereo not drawn) [c79]
[1]
  Test B: Bioassay on CL, percent mortality rating: A (50-100)
[2]
  Test C: Bioassay on Yellow Fever Mosquito, mortality rating: A (80-100)
[3]
  Test A: Bioassay on BAW, percent mortality rating: A (50-100)

## CNc1ccc(NC(=O)c2cc(NC(=O)C3C(c4cc(Cl)cc(Cl)c4)C3(Cl)Cl)ccc2Cl)c(C)c1 (stereo not drawn) [c35]
[1]
  Test B: Bioassay on CL, percent mortality rating: A (50-100)
[2]
  Test C: Bioassay on Yellow Fever Mosquito, mortality rating: A (80-100)
[3]
  Test A: Bioassay on BAW, percent mortality rating: A (50-100)

## Cn1ccc2cc(NC(=O)c3cc(NC(=O)C4C(c5cc(Cl)cc(Cl)c5)C4(Cl)Cl)ccc3Cl)ccc21 (stereo not drawn) [c36]
[1]
  Test B: Bioassay on CL, percent mortality rating: A (50-100)
[2]
  Test C: Bioassay on Yellow Fever Mosquito, mortality rating: A (80-100)
[3]
  Test A: Bioassay on BAW, percent mortality rating: A (50-100)

## O=C(Nc1ccc2c(ccn2CCF)c1)c1cc(NC(=O)C2C(c3cc(Cl)cc(Cl)c3)C2(Cl)Cl)ccc1Cl (stereo not drawn) [c93]
[1]
  Test B: Bioassay on CL, percent mortality rating: A (50-100)
[2]
  Test C: Bioassay on Yellow Fever Mosquito, mortality rating: A (80-100)
[3]
  Test A: Bioassay on BAW, percent mortality rating: A (50-100)

## Cc1cc(N)ccc1NC(=O)c1cc(NC(=O)C2C(c3ccc(Cl)c(Cl)c3)C2(Cl)Cl)ccc1Cl (stereo not drawn) [c114]
[1]
  Test B: Bioassay on CL, percent mortality rating: A (50-100)
[2]
  Test C: Bioassay on Yellow Fever Mosquito, mortality rating: A (80-100)
[3]
  Test A: Bioassay on BAW, percent mortality rating: A (50-100)

## O=C(Nc1ccc2[nH]cnc2c1)c1cc(NC(=O)C2C(c3cc(Cl)cc(Cl)c3)C2(Cl)Cl)ccc1Cl (stereo not drawn) [c34]
[1]
  Test B: Bioassay on CL, percent mortality rating: A (50-100)
[2]
  Test C: Bioassay on Yellow Fever Mosquito, mortality rating: B (More than 0 - Less than 80)
[3]
  Test A: Bioassay on BAW, percent mortality rating: A (50-100)

## Nc1cncc(NC(=O)c2cc(NC(=O)C3C(c4ccc(Cl)c(Cl)c4)C3(Cl)Cl)ccc2Cl)c1 (stereo not drawn) [c111]
[1]
  Test B: Bioassay on CL, percent mortality rating: A (50-100)
[2]
  Test C: Bioassay on Yellow Fever Mosquito, mortality rating: A (80-100)
[3]
  Test A: Bioassay on BAW, percent mortality rating: A (50-100)

## O=C(Nc1ccc2c(c1)CCCN2)c1cc(NC(=O)C2C(c3cc(Cl)cc(Cl)c3)C2(Cl)Cl)ccc1Cl (stereo not drawn) [c88]
[1]
  Test B: Bioassay on CL, percent mortality rating: A (50-100)
[2]
  Test C: Bioassay on Yellow Fever Mosquito, mortality rating: A (80-100)
[3]
  Test A: Bioassay on BAW, percent mortality rating: A (50-100)

## CC(=O)N(C(C)=O)c1ccc(NC(=O)c2cc(NC(=O)C3C(c4cc(Cl)cc(Cl)c4)C3(Cl)Cl)ccc2Cl)c(C#N)c1 (stereo not drawn) [c57]
[1]
  Test B: Bioassay on CL, percent mortality rating: A (50-100)
[2]
  Test C: Bioassay on Yellow Fever Mosquito, mortality rating: A (80-100)
[3]
  Test A: Bioassay on BAW, percent mortality rating: A (50-100)

## CC(C)(C)CC(=O)Nc1ccc(NC(=O)c2cc(NC(=O)[C@H]3[C@H](c4cc(Cl)cc(Cl)c4)C3(Cl)Cl)ccc2Cl)cc1 [c8]
[1]
  Test B: Bioassay on CL, percent mortality rating: A (50-100)
[2]
  Test C: Bioassay on Yellow Fever Mosquito, mortality rating: D (No activity noticed in this bioassay)
[3]
  Test A: Bioassay on BAW, percent mortality rating: A (50-100)

## Cc1cc(C(F)(C(F)(F)F)C(F)(F)F)cc(C)c1NC(=O)c1cc(NC(=O)[C@H]2[C@H](c3cc(Cl)cc(Cl)c3)C2(Cl)Cl)ccc1Cl [c3]
[1]
  Test B: Bioassay on CL, percent mortality rating: A (50-100)
[2]
  Test C: Bioassay on Yellow Fever Mosquito, mortality rating: D (No activity noticed in this bioassay)
[3]
  Test A: Bioassay on BAW, percent mortality rating: A (50-100)

## O=C(CC1CC1)Nc1ccc(NC(=O)c2cc(NC(=O)[C@H]3[C@H](c4cc(Cl)cc(Cl)c4)C3(Cl)Cl)ccc2Cl)cc1 [c5]
[1]
  Test B: Bioassay on CL, percent mortality rating: A (50-100)
[2]
  Test C: Bioassay on Yellow Fever Mosquito, mortality rating: A (80-100)
[3]
  Test A: Bioassay on BAW, percent mortality rating: A (50-100)

## Cc1cccc(NC(=O)c2cc(NC(=O)C3C(c4cc(Cl)cc(Cl)c4)C3(Cl)Cl)ccc2Cl)c1C#N (stereo not drawn) [c95]
[1]
  Test B: Bioassay on CL, percent mortality rating: A (50-100)
[2]
  Test C: Bioassay on Yellow Fever Mosquito, mortality rating: A (80-100)
[3]
  Test A: Bioassay on BAW, percent mortality rating: A (50-100)

## O=C(Nc1ccc(-c2ncco2)cc1)c1cc(NC(=O)C2C(c3cc(Cl)cc(Cl)c3)C2(Cl)Cl)ccc1Cl (stereo not drawn) [c23]
[1]
  Test B: Bioassay on CL, percent mortality rating: A (50-100)
[2]
  Test C: Bioassay on Yellow Fever Mosquito, mortality rating: D (No activity noticed in this bioassay)
[3]
  Test A: Bioassay on BAW, percent mortality rating: A (50-100)
